The values that follow come from paper PMC8939909 (Journal of medicinal chemistry, 2021).

For series [1], the target named is T1, human LMPTP-A (Homo sapiens, UniProt P24666).
T1 sequence (P24666 1-158): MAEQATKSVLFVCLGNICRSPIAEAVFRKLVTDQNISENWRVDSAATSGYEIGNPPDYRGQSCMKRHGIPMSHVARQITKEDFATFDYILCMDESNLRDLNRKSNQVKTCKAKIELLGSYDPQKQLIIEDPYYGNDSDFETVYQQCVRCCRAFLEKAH

The nature of the next series: Mouse pharmacokinetics. The settings on record: in vivo, iv, 2 mg/kg.
In series [2] the target is T1, human LMPTP-A. Description: LMPTP biochemical inhibition assay. The settings on record: for LMPTP potency, in words (Table 3 series): substitution of the benzyl substituent off the 3-position.
The next series concerns diabetic DIO mice. Briefly: DIO diabetes model. It counts as in vivo, mouse. Particulars: 2 weeks.
In a further series the test system is HepG2 hepatocytes. Description: Insulin-stimulated AKT Thr308 phosphorylation in HepG2 hepatocytes. The series is classed as cell-based, human. The settings on record: 500 nM overnight, 10 nM insulin 5 min.
The next series deals with LYP. The settings on record: HTS workflow; cited from earlier work.
A further series concerns VHR. Particulars: HTS workflow; cited from earlier work.
The test system of series [3] is panel of PTPs (class I tyrosine-specific and dual-specific PTPs). The settings on record: 40 μM compound; no other PTP tested.
Where [4] appears, read: 0.03% in HFD chow, 10 min after IP insulin.

For `Cc1ccccc1-c1nc2c(N)ncn(Cc3c(Cl)cccc3Cl)c-2n1` [5d], the “mechanism of LMPTP inhibition” value on human LMPTP-A [1] is given as “uncompetitive”. Also, the “potency at varying substrate concentrations” value at human LMPTP-A [1] (20 nM human LMPTP-A, increasing OMFP) is on record as “enhanced potency in the presence of increasing substrate”. This compound also returned a clearance at 24 h in “Mouse pharmacokinetics” of 69 mL/min/kg.
Consider `Nc1ncn(Cc2ccccc2)c2ncnc1-2` [6a], for which the “LMPTP potency, in words (Table 3 series)” value at human LMPTP-A [2] is reported as “decreased potency”.
As for `Nc1ncn(Cc2ccccc2Cl)c2ncnc1-2` [6b], the “LMPTP potency, in words (Table 3 series)” value at human LMPTP-A [2] is “decreased potency”.
Still for that read-out and setting: the value for `Nc1ncn(Cc2ccc(Cl)cc2Cl)c2ncnc1-2` [6c] was “decreased potency”; that for `Nc1ncn(Cc2cccc(Cl)c2)c2ncnc1-2` [6d] was “decreased potency”; that for `Nc1ncn(Cc2ccc(Cl)cc2)c2ncnc1-2` [6e] was “decreased potency”.
`Cc1cccc(C)c1Cn1cnc(N)c2ncnc1-2` [6f]: the “fold loss in potency (LMPTP)” value at human LMPTP-A [2] (benzyl substituent off the 3-position, compared with 2,6-bisubstitution) was found to be 10 fold.
Take `Nc1ncn(Cc2c(Cl)cncc2Cl)c2ncnc1-2` [6g]: on human LMPTP-A [1], the “mechanism of LMPTP inhibition” value is reported as “uncompetitive”. The compound also showed a clearance at 24 h in “Mouse pharmacokinetics” of 18 mL/min/kg. Besides, the “glucose tolerance (IPGTT)” value in the series on diabetic DIO mice (0.03% in HFD chow (roughly 30 mg/kg/day)) is reported as “significantly improved”. Besides, the fasting insulin levels entry in the series with diabetic DIO mice (0.03% in HFD chow) is listed as “decreased”. For the same compound, in the series with diabetic DIO mice (setting [4]), the “insulin-stimulated phosphorylation of the IR activation motif in liver” value was “increased” and the “phosphorylation of AKT Thr308 in liver” value is reported as “increased”. Further, the “HepG2 AKT Thr308 phosphorylation after insulin stimulation” value with HepG2 hepatocytes is given as “substantially increased”.
As for `Cc1ccccc1-c1nc2c(N)ncn(Cc3c(Cl)cncc3Cl)c-2n1` [6h], the “LMPTP potency, in words (Table 3 series)” value at human LMPTP-A [2] is listed as “additional boost in potency”. Moreover, the clearance at 24 h in “Mouse pharmacokinetics” turned out to be 103 mL/min/kg.
Take `Clc1cccc(Cl)c1Cn1cnc(=NCc2ccco2)c2[nH]cnc21` [compound 2]: the “selectivity for LMPTP over LYP” value in the series on LYP was “high selectivity”. Moreover, in the series with VHR, the “selectivity for LMPTP over VHR” value is on record as “high selectivity”.
Regarding `Nc1ncn(Cc2c(Cl)cccc2Cl)c2ncnc1-2` [compound 3], the “inhibition of other PTPs of the panel” value in series [3] is recorded as less than 50%. In addition, on human LMPTP-A [2] (compared with 2), the “fold more potent than 2 (LMPTP)” value was more than 10 fold. Moreover, the clearance at 24 h in “Mouse pharmacokinetics” amounted to 5.8 mL/min/kg.
